In US20150216903A1, “COMPOUNDS FOR IMPROVED VIRAL TRANSDUCTION” (BLUEBIRD BIO, INC., priority 2012, published 2015):

Tested on: CD34+ cells
Test: Time-course and dose-response of dmPGE2 in promoting viral transduction (GFP+ lentivirus, flow cytometry)
Type: cell-based, human
Conditions: for percentage of cells positive for GFP: MOI 25
Description: MCD-34+ cells were thawed and pre-stimulated with SCF, TPO, FltL and IL3, then transduced with GFP+ lentivirus at a multiplicity of infection of 25. Cells were exposed to dmPGE2 during the viral transduction step (24-25 hours of culture; 24-26 hours of culture; 24-28 hours of culture; or 24-48 hours of culture) and then washed and analyzed by flow cytometry after approximately 1 week in culture. Alternatively, cells were exposed to dmPGE2 during the pre-stimulation step (22-24 hours of culture; 23-24 hours of culture).

`CCCCC(C)(C)[C@H](O)/C=C/[C@H]1[C@H](O)CC(=O)[C@@H]1C/C=C\CCCC(=O)O` [dmPGE2, 16,16-dimethyl PGE2] was tested, and the “percentage of cells positive for GFP” value (dmPGE2 1 uM, Pre-Stim w/PGE2 Minus 2 Hr (22-24 hours of culture)) was 25.74%, the “percentage of cells positive for GFP” value (dmPGE2 1 uM, Virus and PGE2 24 Hr (24-48 hours of culture)) was 32.03% and the “percentage of cells positive for GFP” value (dmPGE2 1 uM, Virus and PGE2 Plus 1 Hr (24-25 hours of culture)) was 2.94%. The “percentage of cells positive for GFP” value (dmPGE2 1 uM, Virus and PGE2 Plus 2 Hr (24-26 hours of culture)) was 7.17%, the “percentage of cells positive for GFP” value (dmPGE2 1 uM, Virus and PGE2 Plus 4 Hr (24-28 hours of culture)) was 21.10% and the “percentage of cells positive for GFP” value (dmPGE2 12.5 uM, Pre-Stim w/PGE2 Minus 1 Hr (23-24 hours of culture)) was 22.13%. The “percentage of cells positive for GFP” value (dmPGE2 12.5 uM, Pre-Stim w/PGE2 Minus 2 Hr (22-24 hours of culture)) was 30.64%, the “percentage of cells positive for GFP” value (dmPGE2 12.5 uM, Virus and PGE2 24 Hr (24-48 hours of culture)) was 47.42% and the “percentage of cells positive for GFP” value (dmPGE2 12.5 uM, Virus and PGE2 Plus 1 Hr (24-25 hours of culture)) was 1.97%. For the same compound, the “percentage of cells positive for GFP” value (dmPGE2 12.5 uM, Virus and PGE2 Plus 2 Hr (24-26 hours of culture)) was 5.32%, the “percentage of cells positive for GFP” value (dmPGE2 12.5 uM, Virus and PGE2 Plus 4 Hr (24-28 hours of culture)) was 28.08% and the “percentage of cells positive for GFP” value (dmPGE2 25 uM, Pre-Stim w/PGE2 Minus 1 Hr (23-24 hours of culture)) was 24.05%. For the same compound, the “percentage of cells positive for GFP” value (dmPGE2 25 uM, Pre-Stim w/PGE2 Minus 2 Hr (22-24 hours of culture)) was 31.90%, the “percentage of cells positive for GFP” value (dmPGE2 25 uM, Virus and PGE2 24 Hr (24-48 hours of culture)) was 50.69% and the “percentage of cells positive for GFP” value (dmPGE2 25 uM, Virus and PGE2 Plus 1 Hr (24-25 hours of culture)) was 1.76%. The “percentage of cells positive for GFP” value (dmPGE2 25 uM, Virus and PGE2 Plus 2 Hr (24-26 hours of culture)) was 4.76%, the “percentage of cells positive for GFP” value (dmPGE2 25 uM, Virus and PGE2 Plus 4 Hr (24-28 hours of culture)) was 27.46% and the “percentage of cells positive for GFP” value (dmPGE2 50 uM, Pre-Stim w/PGE2 Minus 1 Hr (23-24 hours of culture)) was 22.98%. For the same compound, the “percentage of cells positive for GFP” value (dmPGE2 50 uM, Pre-Stim w/PGE2 Minus 2 Hr (22-24 hours of culture)) was 31.85%, the “percentage of cells positive for GFP” value (dmPGE2 50 uM, Virus and PGE2 24 Hr (24-48 hours of culture)) was 54.63% and the “percentage of cells positive for GFP” value (dmPGE2 50 uM, Virus and PGE2 Plus 1 Hr (24-25 hours of culture)) was 1.85%. For the same compound, the “percentage of cells positive for GFP” value (dmPGE2 50 uM, Virus and PGE2 Plus 2 Hr (24-26 hours of culture)) was 4.23%, the “percentage of cells positive for GFP” value (dmPGE2 50 uM, Virus and PGE2 Plus 4 Hr (24-28 hours of culture)) was 27.45% and the “percentage of cells positive for GFP” value (dmPGE2 100 uM, Pre-Stim w/PGE2 Minus 1 Hr (23-24 hours of culture)) was 25.14%. The “percentage of cells positive for GFP” value (dmPGE2 100 uM, Pre-Stim w/PGE2 Minus 2 Hr (22-24 hours of culture)) was 34.85%, the “percentage of cells positive for GFP” value (dmPGE2 100 uM, Virus and PGE2 24 Hr (24-48 hours of culture)) was 76.44% and the “percentage of cells positive for GFP” value (dmPGE2 100 uM, Virus and PGE2 Plus 1 Hr (24-25 hours of culture)) was 2.48%. The “percentage of cells positive for GFP” value (dmPGE2 100 uM, Virus and PGE2 Plus 2 Hr (24-26 hours of culture)) was 4.02%, the “percentage of cells positive for GFP” value (dmPGE2 100 uM, Virus and PGE2 Plus 4 Hr (24-28 hours of culture)) was 21.57% and the “improvement of viral transduction” value (time windows commonly used for promoting hematopoietic stem cell activity, on the order of one to two hours) was “unable to improve viral transduction”.
